The record followed here is article PMC2918681 (Biochemical and biophysical research communications, 2010).

Molecules are shown by their SMILES.

Test [1] addresses T1, acyl-coenzyme A:cholesterol acyltransferase 2 (ACAT2) (Homo sapiens, UniProt O75908).
T1 sequence (O75908 1-522): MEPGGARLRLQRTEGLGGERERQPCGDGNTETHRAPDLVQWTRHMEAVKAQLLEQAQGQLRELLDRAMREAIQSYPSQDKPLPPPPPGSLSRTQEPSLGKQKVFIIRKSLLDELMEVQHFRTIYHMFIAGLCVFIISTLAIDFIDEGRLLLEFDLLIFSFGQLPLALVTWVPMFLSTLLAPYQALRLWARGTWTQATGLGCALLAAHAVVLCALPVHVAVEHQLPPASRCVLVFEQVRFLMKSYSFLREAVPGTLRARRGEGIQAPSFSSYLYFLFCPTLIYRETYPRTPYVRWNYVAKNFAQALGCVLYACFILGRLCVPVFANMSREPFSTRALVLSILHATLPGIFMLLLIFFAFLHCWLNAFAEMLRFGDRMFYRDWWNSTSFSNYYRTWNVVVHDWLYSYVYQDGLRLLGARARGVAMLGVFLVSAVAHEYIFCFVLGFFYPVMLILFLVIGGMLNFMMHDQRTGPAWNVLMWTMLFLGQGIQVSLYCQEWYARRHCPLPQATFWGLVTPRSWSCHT
The test is described as follows: [3H]oleate incorporation into cholesteryl oleate in CHO-ACAT2 cells. The class given is cell-based.

In test [2] the target is T2, acyl-coenzyme A:cholesterol acyltransferase 1 (ACAT1) (Homo sapiens, UniProt P35610).
T2 sequence (P35610 1-550): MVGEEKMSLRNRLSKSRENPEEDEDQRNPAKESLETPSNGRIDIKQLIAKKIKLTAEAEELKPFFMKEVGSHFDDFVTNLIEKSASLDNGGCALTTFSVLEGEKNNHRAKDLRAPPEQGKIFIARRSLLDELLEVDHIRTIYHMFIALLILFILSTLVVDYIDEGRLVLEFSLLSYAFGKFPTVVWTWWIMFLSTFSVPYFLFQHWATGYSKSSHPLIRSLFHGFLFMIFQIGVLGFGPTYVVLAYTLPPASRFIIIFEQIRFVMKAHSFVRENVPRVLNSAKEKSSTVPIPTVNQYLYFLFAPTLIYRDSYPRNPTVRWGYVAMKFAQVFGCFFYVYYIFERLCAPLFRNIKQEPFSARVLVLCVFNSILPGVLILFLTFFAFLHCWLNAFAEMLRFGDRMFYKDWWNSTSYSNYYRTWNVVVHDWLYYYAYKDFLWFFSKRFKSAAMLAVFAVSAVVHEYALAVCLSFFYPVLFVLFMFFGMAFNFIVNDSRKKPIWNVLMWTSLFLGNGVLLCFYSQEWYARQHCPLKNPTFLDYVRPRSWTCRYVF
The experiment in a line: [3H]oleate incorporation into cholesteryl oleate in CHO-ACAT1 cells. The test is classed as cell-based.

The term IC50 denotes the concentration that inhibits the measured activity by half. A higher IC50 goes with weaker potency in that assay. On to `Cc1c(C(=O)NN2CCCCC2)nn(-c2ccc(Cl)cc2Cl)c1-c1ccc(Cl)cc1` [Rimonabant], for which the IC50 was 2.2 ± 1.1 µM in test [1] and 1.5 ± 1.2 µM in test [2].
